Source: patent US9932479B2, “Dyes and compositions, and processes for using same in analysis of protein aggregation and other applications” (Enzo Biochem, Inc., priority 2009, dated 2018)

What was measured:
[1] = target: T1, recombinant human alpha-synuclein (ASN) aggregate (Homo sapiens, UniProt P37840); assay: Fluorescence excitation and emission spectra of dye in the presence of aggregated alpha-synuclein; format: binding; conditions: for In the presence of aggregate: Emission wavelength / In the presence of aggregate: Excitation wavelength: 1 μM aggregated ASN, 50 mM Tris-HCl, pH 7.8, 10 μM dye
T1 construct: purchased Sigma-Aldrich
Method: (§1) Fluorescent readings were carried out in 50 mM Tris-HCl, pH 7.8 using 10 μM dye. […] Fluorescence excitation and emission spectra were collected on a Cary Eclipse fluorescence spectrophotometer (Varian, Australia). Fluorescence spectra were measured with excitation and emission slit widths set to 5 nm, and at a constant PMT voltage. Spectroscopic measurements were performed in standard quartz cells. All measurements were made at the respective excitation maxima of each dye. All measurements were carried out at room temperature.

[2] = tested on: goat-anti-mouse IgG aggregate; assay: Fluorescence enhancement (aggregate/native IgG) in the presence of excipients; format: binding; conditions: for Fluorescence enhancement (aggregate/native IgG): 2.8 μM IgG, 0.625 μM dye; for Fluorescence enhancement (aggregate/native IgG), Average: Average over all excipient conditions
Method: IgG aggregate was prepared by adjusting 5.83 mg/ml of purified goat-anti-mouse IgG (H&L, Pel Freez, Rogers, Ark.) to pH 2.7 using HCl and incubating at 22° C. for 24 hours. The assay was performed using 2.8 μM IgG, either native or aggregated, and a dye concentration of 0.625 μM. The protein and dye were mixed together for 15 minutes at 22° C., then this was further incubated in the presence of the excipients shown in the table. The fluorescence intensity of S-25, Tol3 and Y2150 were determined with a FLUOstar OPTIMA plate reader (BMG LABTECH) at excitation wavelength of 550 nm and emission wavelength of 610 nm; while the fluorescence intensity for Thioflavin-T was determined using a SpectraMAX GeminiXS (Molecular device, with Softmax Pro 7.0) using an excitation wavelength of 435 nm and emission wavelength of 495 nm. The fluorescence enhancement (aggregate/native IgG) is shown.

[3] = Fluorescence excitation and emission spectra of dye freely dissolved in buffer; format: physicochemical; conditions: 50 mM Tris-HCl, pH 7.8, 10 μM dye, room temperature
Method: as §1

Goat anti-mouse IgG = assay: High-throughput protein formulation optimization: effect of excipients on IgG aggregation at 50° C., S-25/Tol3 readout; format: biochemical; conditions: 50° C. for 6 hours
Method: (A). Goat anti-mouse IgG was diluted in sodium acetate, pH 4.5, then mixed with the excipients shown in FIG. 10 A giving a final concentration of 400 mM sodium acetate, 18 μM IgG and the excipient concentration shown in the Table 2. This mixture was heated to 50° C. for 6 hours. At this time the protein solution was diluted two-fold to give a final concentration of 50 mM Histidine buffer, originally pH 7, 2.5 μM S-25, 2.5 μM Tol3 and 9 μM IgG. After 30 minutes of incubation on the shaker, the fluorescence intensity was recorded on the plate reader (FLUOstar Optima). The fluorescence intensity from each individual excipient was then compared with that without any excipient (Value set as 1.0) as shown on the top of the corresponding excipient bar in FIG. 12 A.
(B). In the control plate, the IgG was added to the plate, at the same volume and concentration given above (Example 17A) in 400 mM Sodium Acetate. This mixture was heated to 50° C. for 6 hours, as described above. After 6 hours, the excipient was added followed by S-25 and Tol3 to give all the final concentrations as shown in Example 17A. Similar to the sample plate, the fluorescence intensity from individual excipients was also compared with that from water without any excipient (Values set as 1.0) to obtain the relative fluorescent intensity as shown on the top of the corresponding excipient bar in FIG. 12B.
(C). […]

| Compound | In the presence of aggregate: Emission wavelength [1] | In the presence of aggregate: Excitation wavelength [1] | Fluorescence enhancement (aggregate/native IgG) ([2]; Ammonium Sulfate, 10 mM) | Fluorescence enhancement (aggregate/native IgG) ([2]; Ammonium Sulfate, 100 mM) | Fluorescence enhancement (aggregate/native IgG) ([2]; Ammonium Sulfate, 300 mM) | Fluorescence enhancement (aggregate/native IgG) ([2]; Arginine, 200 mM) | Fluorescence enhancement (aggregate/native IgG) ([2]; Arginine, 500 mM) | Fluorescence enhancement (aggregate/native IgG) ([2]; Ascoric Acid, 1 mM) | Fluorescence enhancement (aggregate/native IgG), Average [2] | Fluorescence enhancement (aggregate/native IgG) ([2]; Calcium Chloride, 10 mM) | Fluorescence enhancement (aggregate/native IgG) ([2]; Calcium Chloride, 50 mM) | Fluorescence enhancement (aggregate/native IgG) ([2]; Calcium Chloride, 200 mM) | Fluorescence enhancement (aggregate/native IgG) ([2]; DTT, 1 mM) | Fluorescence enhancement (aggregate/native IgG) ([2]; Glycine, 0.5%) | Fluorescence enhancement (aggregate/native IgG) ([2]; Glycine, 2%) | Fluorescence enhancement (aggregate/native IgG) ([2]; Lactose, 100 mM) | Fluorescence enhancement (aggregate/native IgG) ([2]; Lactose, 300 mM) | Fluorescence enhancement (aggregate/native IgG) ([2]; Mannitol, 100 mM) | Fluorescence enhancement (aggregate/native IgG) ([2]; Mannitol, 300 mM) | Fluorescence enhancement (aggregate/native IgG) ([2]; Mannitol, 600 mM) | further results |
| --- | --- | --- | --- | --- | --- | --- | --- | --- | --- | --- | --- | --- | --- | --- | --- | --- | --- | --- | --- | --- | --- |
| CCN(CC)c1ccc(/C=C/c2cc[n+](CCCCCCCCCC[n+]3ccc(/C=C/c4ccc(N(CC)CC)cc4)c(C)c3)cc2C)cc1 [Yat 2150] | 610 nm | 515 nm | 12.4 fold | 12.5 fold | 14.6 fold | 14.4 fold | 14.3 fold | 14.5 fold | 14.8 fold | 12.4 fold | 14.7 fold | 13.9 fold | 11.3 fold | 12.5 fold | 19.0 fold | 17.5 fold | 31.0 fold | 11.2 fold | 13.8 fold | 17.7 fold | Fluorescence enhancement (aggregate/native IgG) ([2]; Sodium Chloride, 10 mM): 14.4 fold; Fluorescence enhancement (aggregate/native IgG) ([2]; Sodium Chloride, 100 mM): 11.3 fold; Fluorescence enhancement (aggregate/native IgG) ([2]; Sodium Chloride, 1000 mM): 15.0 fold; Fluorescence enhancement (aggregate/native IgG) ([2]; Sorbitol, 100 mM): 17.3 fold; Fluorescence enhancement (aggregate/native IgG) ([2]; Sorbitol, 300 mM): 15.6 fold; Fluorescence enhancement (aggregate/native IgG) ([2]; Sorbitol, 600 mM): 18.7 fold; Fluorescence enhancement (aggregate/native IgG) ([2]; Trehalose, 100 mM): 14.0 fold; Fluorescence enhancement (aggregate/native IgG) ([2]; Trehalose, 300 mM): 19.4 fold; Fluorescence enhancement (aggregate/native IgG) ([2]; Trehalose, 600 mM): 18.9 fold; Fluorescence enhancement (aggregate/native IgG) ([2]; Tween 20, 0.01%): 5.5 fold; Fluorescence enhancement (aggregate/native IgG) ([2]; Tween 20, 0.2%): 2.6 fold; Fluorescence enhancement (aggregate/native IgG) ([2]; X100, 0.01%): 4.1 fold; Fluorescence enhancement (aggregate/native IgG) ([2]; X100, 0.2%): 2.6 fold; Fluorescence enhancement (aggregate/native IgG) ([2]; X100, 1%): 1.7 fold; Dye freely dissolved in buffer: Emission wavelength [3]: 612 nm; Dye freely dissolved in buffer: Excitation wavelength [3]: 485 nm |
| Triton X-100 | – | – | – | – | – | – | – | – | – | – | – | – | – | – | – | – | – | – | – | – | Effect on aggregation of IgG (fluorescence ratio sample plate / control plate) (Goat anti-mouse IgG; 0.2% Triton X-100): induce aggregation of IgG |
| OC[C@H]1O[C@H](O[C@H]2O[C@H](CO)[C@@H](O)[C@H](O)[C@H]2O)[C@H](O)[C@@H](O)[C@@H]1O [Trehalose] | – | – | – | – | – | – | – | – | – | – | – | – | – | – | – | – | – | – | – | – | Effect on aggregation of IgG (fluorescence ratio sample plate / control plate) (Goat anti-mouse IgG; 100 mM Trehalose): inhibit or slow down aggregation of IgG |
| Cc1ccc2c(c1)sc(-c1ccc(N(C)C)cc1)[n+]2C.[Cl-] [Thioflavin-T, Thioflavin T, reference compound] | 480 nm | 447 nm | 2.8 fold | 2.6 fold | 1.4 fold | 1.4 fold | 2.0 fold | 1.5 fold | 2.9 fold | 3.1 fold | 1.5 fold | 1.7 fold | 1.6 fold | 3.1 fold | 3.2 fold | 1.2 fold | 1.4 fold | 3.1 fold | 3.7 fold | 1.8 fold | Stokes shift ([1]; as seen in Table 1): 23 nm; Fluorescence enhancement (aggregate/native IgG) ([2]; Sodium Chloride, 10 mM): 1.6 fold; Fluorescence enhancement (aggregate/native IgG) ([2]; Sodium Chloride, 100 mM): 1.3 fold; Fluorescence enhancement (aggregate/native IgG) ([2]; Sodium Chloride, 1000 mM): 2.7 fold; Fluorescence enhancement (aggregate/native IgG) ([2]; Sorbitol, 100 mM): 3.0 fold; Fluorescence enhancement (aggregate/native IgG) ([2]; Sorbitol, 300 mM): 1.9 fold; Fluorescence enhancement (aggregate/native IgG) ([2]; Sorbitol, 600 mM): 3.6 fold; Fluorescence enhancement (aggregate/native IgG) ([2]; Trehalose, 100 mM): 2.2 fold; Fluorescence enhancement (aggregate/native IgG) ([2]; Trehalose, 300 mM): 0.2 fold; Fluorescence enhancement (aggregate/native IgG) ([2]; Trehalose, 600 mM): 4.8 fold; Fluorescence enhancement (aggregate/native IgG) ([2]; Tween 20, 0.01%): 4.6 fold; Fluorescence enhancement (aggregate/native IgG) ([2]; Tween 20, 0.2%): 2.6 fold; Fluorescence enhancement (aggregate/native IgG) ([2]; X100, 0.01%): 5.3 fold; Fluorescence enhancement (aggregate/native IgG) ([2]; X100, 0.2%): 6.6 fold; Fluorescence enhancement (aggregate/native IgG) ([2]; X100, 1%): 3.4 fold; Dye freely dissolved in buffer: Emission wavelength [3]: 472 nm; Dye freely dissolved in buffer: Excitation wavelength [3]: 400 nm |
